From US20220023454A1, “PHOTODYNAMIC METHOD TO DECONTAMINATE SURFACES” (priority 2020, published 2022) come the findings set out here.

In one assay the test system is feline calicivirus (FCV). Briefly: Photodynamic inactivation of FCV in water with photosensitizer and light. To be noted: for log reduction in FCV: 3 minute exposure; for efficacy against FCV: photodynamic treatment, under the conditions tested (10, 25, 50 μM PS; light exposure). As to the method:
(§1) The inactivation of HuNoV surrogates (e.g., feline calicivirus (FCV) and Tulane virus (TuV)) was studied, by exposure to light in the presence of photosensitizer dyes in water, FCV and TuV were mixed with different concentrations (10, 25, and 50 μM) of three different PS (Rose Bengal (RB), Phloxine B (Ph-B) and chlorophyllin) and then exposed to light for a period of time, e.g., 1, 3, 5, or 10 minutes. While not being limited to a mode of action, capsid integrity and/or genome integrity may be impacted by the exposure of viruses to light in the presence of the PS.
(§2) Shellfish and fresh produce are the most frequent foods implicated in human norovirus (HuNoV) outbreaks in the US. Decontamination of virus-contaminated waters used in depuration of oysters, clams or mussels, and in post-harvest washing of fresh produce, is a mitigation strategy for this human biothreat risk. […] Although the PDT has been studied extensively for bacterial inactivation, studies on its use for viral inactivation in food and water are scarce. Inactivation of >4 log TCID50 of two HuNoV surrogates (feline calicivirus (FCV) and Tulane virus (TuV)) in water was observed upon exposure to LED-blue light for 3 to 10 min using Rose Bengal (RB) or Phloxine-B (Ph-B) as photosensitizers. The virucidal effect of PDT may depend on the type of treated virus, the light source, the type and concentration of the photosensitizer (PS), and the operational parameters such as the distance between the light source and treated object and/or exposure time.

The subject of the next assay is Tulane virus (TuV). As to the kind of experiment: Photodynamic inactivation of TuV in water with photosensitizer and light. To be noted: for efficacy against TuV: photodynamic treatment, under the conditions tested (10, 25, 50 μM PS; light exposure). As to the method: as §1, §2
Assay [1] has as its system Gram positive or Gram negative bacterial suspension, e.g., E. coli, Salmonella enterica, Staphylococcus aureus, or Bacillus subtilis. As to the kind of experiment: Decontamination of lettuce leaves and stainless-steel discs spiked with bacteria, blue LED light, agar plate count. Conditions: 50 μM Phloxin-B, 1 cm distance, blue LED 1, 3, 5, and 10 minutes; lettuce leaf or stainless-steel surface. How it is done: Romaine lettuce leaves are cut into small squares (2×2 cm) and then are disinfected using 300 ppm sodium hypochlorite followed by rinsing three times with sterilized distilled water. Sterile stainless-steel discs are also used as a model for surface decontamination. Each sample is spiked with 50 μL of a Gram positive or Gram negative bacterial suspension, e.g., E. coli, Salmonella enterica, Staphylococcus aureus, or Bacillus subtilis, then dried for 30 minutes. 100 μL of a 50 μM Phloxin-B solution is then added to each spiked leaf or stainless-steel surface. The samples are exposed at a 1 cm distance to the blue LED light source for 1, 3, 5, and 10 minutes. After each exposure time any surviving bacterial cells are recovered in 500 μL of recovery buffer followed by vortexing for 0.5 to 1 minute. The surviving bacterial cells are enumerated using Agar plate count technique. A ≥3 log reduction in the bacterial cell counts is observed.

For the next assay, the system named is FCV. As to the kind of experiment: Virus added to light-preexposed Ph-B solution, cell culture titration. Details: species or system feline calicivirus. To be noted: 50 μM Phloxin-B pre-exposed to blue LED light 1-10 min; 1 to 5 min contact. As to the method: (§3) Several 50 μM stocks of Phloxin-B solution are prepared (500 μL each). Each stock is pre-exposed to the blue LED light for specific times (e.g., 1, 2, 3, 5, and 10 min). Immediately after light exposure, 50 μL of the tested virus (FCV, TuV, and TGEV) is added to the light-preexposed Ph-B solution for about 1 to 5 min contact times before titrating the surviving virus using a cell culture assay. A >3 log reduction in the virus titer is observed.

The subject of another assay is TuV. The description is as above. Details: species or system Tulane virus. Conditions: 50 μM Phloxin-B pre-exposed to blue LED light 1-10 min; 1 to 5 min contact. How it is done:
as §3

The next assay has as its system TGEV. Described as above. Also noted: species or system transmissible gastroenteritis virus. To be noted: 50 μM Phloxin-B pre-exposed to blue LED light 1-10 min; 1 to 5 min contact. As to the method: as §3

Consider `O=C([O-])c1c(Cl)c(Cl)c(Cl)c(Cl)c1-c1c2cc(Br)c(=O)c(Br)c-2oc2c(Br)c([O-])c(Br)cc12.[Na+].[Na+]` [Ph-B, Phloxine B], for which, in the assay with feline calicivirus (FCV) (50 μM Ph-B), the “log reduction in FCV” value amounted to 4 log. For the same molecule, in the assay on feline calicivirus (FCV), the “efficacy against FCV” value is “high efficacy”. For the same molecule, the “log reduction in TuV” value in the assay with Tulane virus (TuV) (5 minute exposure, 50 μM Ph-B) came to 4 log. Further, the “efficacy against TuV” value in the assay on Tulane virus (TuV) was “high efficacy”. For the same molecule, the “log reduction in the bacterial cell counts” value in assay [1] is recorded as at least 3 log. In the assay with FCV, the “log reduction in the virus titer (FCV)” value is given as above 3 log. The “log reduction in the virus titer (TuV)” value with TuV was above 3 log. The “log reduction in the virus titer (TGEV)” value in the assay with TGEV was above 3 log.
As to chlorophyllin, in the assay on feline calicivirus (FCV), the “efficacy against FCV” value was “low efficacy”.
For `O=C1OC2(c3cc(I)c(O)c(I)c3Oc3c2cc(I)c(O)c3I)c2c(Cl)c(Cl)c(Cl)c(Cl)c21` [RB, Rose Bengal], in the assay with feline calicivirus (FCV) (25 μM RB), the “log reduction in FCV” value turned out to be 4 log. Also, in the assay on feline calicivirus (FCV), the “efficacy against FCV” value is on record as “high efficacy”. The “log reduction in TuV” value with Tulane virus (TuV) (10 minute exposure, 50 μM RB) is 4 log. Also, the “efficacy against TuV” value with Tulane virus (TuV) is reported as “high efficacy”.
